The test system of one data set is FGFR. Nature of the data set: FGF-induced DNA synthesis (BrdU incorporation) in 3T3/EGFRc7 cells. It counts as cell-based. The method, then:
(§1) The following example illustrates the ability of the compounds of the invention to inhibit FGFR-stimulated and PDGFR-stimulated DNA synthesis in cells. DNA synthesis is required for many of the activities of FGFP and PDGFR including, but not limited to, cell proliferation. Uridine is added in one set of samples to overcome any contribution made by inhibition of DHOD and just evaluate the inhibition of PDGFR or FGFR signaling. (See Greene, et al., Biochem. Pharmacol., 50(6):861 (1995), Nair, et al., Immunology Letters, 47:171 (1995)).
(§2) (1) EGF: mouse EGF, 201; Toyobo,Co., Ltd. Japan; PDGF, Boehringer Mannheim, Germany; FGF, Gibco.
(§3) (2) BrdU Labeling Reagent: 10 mM, in PBS (pH7.4) Cat. No. 1 647 229, Boehringer Mannheim, Germany.
(§4) (3) FixDenat: fixation solution (ready to use), Cat. No. 1 647 229, Boehringer Mannheim, Germany.
(§5) (4) Anti-BrdU-POD: mouse monoclonal antibody conjugated with peroxidase, Cat. No. 1 647 229, Boehringer Mannheim, Germany.
(§6) (5) TMB Substrate Solution: tetramethylbenzidine (TMB), ready to use, Cat. No. 1 647 229, Boehringer Mannheim, Germany.
(§7) (6) PBS Washing Solution: 1×phosphate buffered saline, pH 7.4
(§8) (7) Albumin, Bovine (BSA): fraction V powder; A-8551, Sigma Chemical Co., USA.
(§9) (8) NIH3T3 clone C7 (3T3/EGFRc7)(Honegger et al., Cell 51:199-209, 1987)) engineered to over-express human EGF receptor.
(§10) These cells natively express FGFR and PDGFR.
(§11) (1) 3T3/EGFRc7 cells were seeded at 8000 cells/well in DMEM, 10% CS, 2 mM Gln in a 96 well plate. Cells are incubated overnight at 37 degrees C. in 5% CO2.
(§12) (2) After 24 hours, the cells were washed with PBS, and then serum starved in serum free medium (0%CS DMEM with 0.1% BSA) for 24 hours.
(3) On day 3, ligand (2n EGF or 1.5 nM FGF or 3.8 nM PDGF) prepared in DMEM with 0.1% BSA and 30 μM (final concentration) uridine) and test compound was added to the cells simultaneously.
The negative control wells received serum free DMEM with 0.1% BSA only; the positive control cells received ligand but no test compound. Test compound was prepared in serum free DMEM with ligand in a 96 well plate, and serially diluted for 7 test concentrations.
(4) After 20 hours of ligand activation, diluted BrdU labeling reagent (1:100 in DMEM, 0.1% BSA) was added and the cells were incubated with BrdU (final concentration=10 μM) for 1.5 hours.
(5) After incubation with labeling reagent, the medium was removed by decanting and tapping the inverted plate on a paper towel. FixDenat solution was added (50 μl/well) and the plates incubated at room temperature for 45 minutes on a plate shaker.
(6) The FixDenat solution was thoroughly removed by decanting and tapping the inverted plate on a paper towel. Milk is added (5% dehydrated milk in PBS, 200 μl/well) as a blocking solution and the plate was incubated for 30 minutes at room temperature on a plate shaker.
(7) The blocking solution was removed by decanting and the wells were washed once with PBS. Anti-BrdU-POD solution (1:100 dilution in PBS, 1% BSA) was added (100 μl/well) and the plate was incubated for 90 minutes at room temperature on a plate shaker.
(8) The antibody conjugate was thoroughly removed by decanting and rinsing the wells 5 times with PBS, and the plate dried by inverting and tapping on a paper towel.
(9) TMB substrate solution was added (100 μl/well) and incubated for 20 minutes at room temperature on a plate shaker until color development was sufficient for photometric detection.
(§13) (10) The absorbance of the samples was measured at 410 nm (in “dual wavelength” mode with a filter reading at 490 nm, as a reference wavelength) on a Dynatech ELISA plate reader.
For orientation: Incorporation of labelled thymidine or its analogues reports DNA synthesis.

Another data set relates to PDGFR. Nature of the data set: PDGF-induced DNA synthesis (BrdU incorporation) in 3T3/EGFRc7 cells. It is filed as cell-based. The settings on record: 3.8 nM PDGF, read-out: PDGF-induced (inhibition of DNA synthesis). Here is the method: as §1, §2, §3, §4, §5, §6, §7, §8, §9, §10, §11, §12
(§14) (3) On day 3, ligand (2n EGF or 1.5 nM FGF or 3.8 nM PDGF) prepared in DMEM with 0.1% BSA and 30 μM (final concentration) uridine) and test compound was added to the cells simultaneously. […]
as §13

The next data set concerns the target T1, human EGF receptor (Homo sapiens, UniProt P00533).
T1 construct: expressed in transfected cells; host or cells: NIH3T3 clone C7 (3T3/EGFRc7)
Description: EGF-induced DNA synthesis (BrdU incorporation) in 3T3/EGFRc7 cells. As to conditions: read-out: EGF-induced (inhibition of DNA synthesis). It counts as cell-based. The method, then:
as §1, §2, §3, §4, §5, §6, §7, §8, §9, §10, §11, §12, §14, §13

In a further data set the test system is C6 cells (glioblastoma). Nature of the data set: Subcutaneous xenograft experiment, inhibition of tumor growth in vivo. As to conditions: for inhibition (% of control): 30 mg/kg/day IP in DMSO, tumor volume. The method, then: Female athymic mice (BALB/c, nu/nu) were obtained from Simonsen Laboratories (Gilroy, Calif.). All animals were maintained under clean-room conditions in Micro-isolator cages with Alpha-dri bedding. They received sterile rodent chow and water ad libitum.
Cell lines were grown in Ham's F10 plus 5% fetal bovine serum (FBS) and 2 mM glutamine (GLN). All cell culture media, glutamine, and fetal bovine serum were purchased from Gibco Life Technologies (Grand Island, N.Y.) unless otherwise specified. All cells were grown in a humid atmosphere of 90-95% air and 5-10% CO2 at 37° C. All cell lines were routinely subcultured twice a week and were negative for mycoplasma as determined by the Mycotect method (Gibco).
Cells were harvested at or near confluency with 0.05% Trypsin-EDTA and pelleted at 450×g for 10 min. Pellets were resuspended in sterile PBS or media (without FBS) and the cells were implanted into the hindflank of the mice (8-10 mice per group 3×10^6 cells/animal). Tumor growth was measured over 3 weeks using venier calipers. Tumor volumes were calculated as a product of length×width×height unless otherwise indicated. P values were calculated using the Students' t-test. Cmpd. 1 in 50 μL excipient (DMSO) was delivered by IP bolus injection daily.

Where [1] appears, read: FGF induced DNA synthesis, with added uridine (30 μM), read-out: IC50 + uridine.
Where [2] appears, read: FGF induced DNA synthesis, without added uridine, read-out: IC50 − uridine.
Setting [3] is: 1.5 nM FGF, Table 2 experiment, read-out: FGF-induced (inhibition of DNA synthesis).

Each structure is given as a SMILES string. Like-named read-outs stand apart in the source and are kept apart here.

T1 sequence (P00533 25-1210): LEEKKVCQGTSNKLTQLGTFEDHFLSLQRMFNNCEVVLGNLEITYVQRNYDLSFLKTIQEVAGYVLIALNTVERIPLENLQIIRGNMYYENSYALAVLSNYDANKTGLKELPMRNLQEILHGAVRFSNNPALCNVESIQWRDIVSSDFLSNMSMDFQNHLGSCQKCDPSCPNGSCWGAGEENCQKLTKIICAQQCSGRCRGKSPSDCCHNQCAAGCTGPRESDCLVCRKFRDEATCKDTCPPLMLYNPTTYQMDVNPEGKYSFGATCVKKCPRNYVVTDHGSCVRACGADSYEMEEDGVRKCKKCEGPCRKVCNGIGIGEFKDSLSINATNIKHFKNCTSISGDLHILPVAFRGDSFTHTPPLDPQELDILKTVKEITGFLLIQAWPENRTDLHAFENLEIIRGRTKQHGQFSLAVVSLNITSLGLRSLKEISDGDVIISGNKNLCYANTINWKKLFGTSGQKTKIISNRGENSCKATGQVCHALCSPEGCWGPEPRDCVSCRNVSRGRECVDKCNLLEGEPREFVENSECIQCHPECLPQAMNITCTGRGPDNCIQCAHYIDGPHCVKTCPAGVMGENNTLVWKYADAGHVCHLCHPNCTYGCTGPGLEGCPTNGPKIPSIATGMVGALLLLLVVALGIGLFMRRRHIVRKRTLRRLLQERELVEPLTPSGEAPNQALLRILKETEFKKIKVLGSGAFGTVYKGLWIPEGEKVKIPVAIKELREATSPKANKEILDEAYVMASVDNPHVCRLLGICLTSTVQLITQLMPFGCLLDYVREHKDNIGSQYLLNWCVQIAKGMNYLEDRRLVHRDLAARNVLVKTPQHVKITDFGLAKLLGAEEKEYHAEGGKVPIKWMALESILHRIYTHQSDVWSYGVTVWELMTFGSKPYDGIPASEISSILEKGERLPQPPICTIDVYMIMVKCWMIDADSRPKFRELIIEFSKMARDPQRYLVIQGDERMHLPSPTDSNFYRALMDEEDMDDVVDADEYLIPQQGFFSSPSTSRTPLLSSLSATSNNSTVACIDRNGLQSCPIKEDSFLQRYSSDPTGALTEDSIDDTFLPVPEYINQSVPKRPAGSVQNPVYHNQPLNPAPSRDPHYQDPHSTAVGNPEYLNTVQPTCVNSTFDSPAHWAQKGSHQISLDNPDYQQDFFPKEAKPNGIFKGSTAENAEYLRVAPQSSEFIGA

`C/C(O)=C(\C#N)C(=O)Nc1ccc(C(F)(F)F)cc1` [A771726]: the IC50 is greater than 100 µM in the data set with FGFR (setting [1]) and 20 µM with FGFR (setting [2]).

In the case of `Cc1c(-c2ccc(-c3ccccc3F)cc2)nc2ccc(F)cc2c1C(=O)O` [brequinar], the IC50 with FGFR (setting [1]) was greater than 100 µM; in the data set on FGFR (setting [2]), 1.6 µM.

For the compound `Cc1nocc1C(=O)Nc1ccc(C(F)(F)F)cc1` [cmpd. 1, 3-Methyl-4-[4-(trifluoromethyl)phenyl-aminocarbonyl]isoxazole], the IC50 in the data set on FGFR (setting [3]) was 65 µM; in the data set on FGFR (setting [1]), 70 µM; with FGFR (setting [2]), 85 µM; with PDGFR, 90 µM; on human EGF receptor it was greater than 100 µM. The “toxic effect at the dose tested” value in the data set with C6 cells (glioblastoma) (30 mg/kg/day IP, xenograft mice) is listed as “no toxic effect”. Moreover, the mortality in the data set on C6 cells (glioblastoma) (Day 8, 30 mg/kg/day IP) turned out to be 0; with C6 cells (glioblastoma) (Day 10, 30 mg/kg/day IP), 0; with C6 cells (glioblastoma) (Day 13, 30 mg/kg/day IP), 0; in the data set on C6 cells (glioblastoma) (Day 15, 30 mg/kg/day IP) it was 0; in the data set on C6 cells (glioblastoma) (Day 17, 30 mg/kg/day IP) it was 0; in the data set with C6 cells (glioblastoma) (Day 20, 30 mg/kg/day IP), 0. In addition, the “inhibition (% of control)” value in the data set on C6 cells (glioblastoma) (Day 8) was 34 % of control; in the data set on C6 cells (glioblastoma) (Day 10), 42 % of control; in the data set with C6 cells (glioblastoma) (Day 13), 48 % of control; in the data set with C6 cells (glioblastoma) (Day 15), 47 % of control; in the data set on C6 cells (glioblastoma) (Day 17), 50 % of control; with C6 cells (glioblastoma) (Day 20), 52 % of control.

Regarding `Cc1n[nH]cc1C(=O)Nc1ccc(C(F)(F)F)cc1` [cmpd. 2, 3-Methyl-4-[4-(trifluoromethyl)phenylaminocarbonyl]pyrazole], the IC50 is greater than 100 µM with FGFR (setting [3]), 95 µM in the data set with PDGFR and greater than 100 µM at human EGF receptor.

Turning to `Cc1noc(C)c1C(=O)Nc1ccc(C(F)(F)F)cc1` [cmpd. 21, 3,5-Dimethyl-4-[4-(trifluoromethyl)phenylaminocarbonyl]isoxazole], the IC50 with FGFR (setting [3]), with PDGFR and at human EGF receptor was greater than 100 µM in each case.

In the case of `Cc1oncc1C(=O)Nc1ccc(C(F)(F)F)cc1` [leflunomide, 4-(-(4′-trifluoromethylphenyl)carboxamido)-5-methyl-isoxazole], the figures for the IC50 in the data set with FGFR (setting [1]) and in the data set on FGFR (setting [2]) were 80 µM and 20 µM, respectively.

The values above are taken from patent US6649635B2, “Heteroarylcarboxamide compounds active against protein tyrosine kinase related disorders” (Sugen, Inc., priority 1997, dated 2003).
